Experimental data: patent US20210052600A1, “THERAPEUTIC AGENTS FOR STRESS URINARY INCONTINENCE AND INCOTINENCE OF FECES” (Takeda Pharmaceutical Company Limited, priority 2017, published 2021)

Legend:
human 5-HT2C receptors = target: T1, human 5-HT2C receptors (Homo sapiens, UniProt P28335); experiment: In vitro test of agonistic potency on human 5-HT2C receptor (change in intracellular Ca2+); format: cell-based; conditions: CHO-K1 cells expressing recombinant human 5-HT2C receptors; intracellular Ca2+ (Fluo-4)
T1 construct: expressed in transfected cells; host or cells: CHO-K1 cells
T1 sequence (P28335 33-458): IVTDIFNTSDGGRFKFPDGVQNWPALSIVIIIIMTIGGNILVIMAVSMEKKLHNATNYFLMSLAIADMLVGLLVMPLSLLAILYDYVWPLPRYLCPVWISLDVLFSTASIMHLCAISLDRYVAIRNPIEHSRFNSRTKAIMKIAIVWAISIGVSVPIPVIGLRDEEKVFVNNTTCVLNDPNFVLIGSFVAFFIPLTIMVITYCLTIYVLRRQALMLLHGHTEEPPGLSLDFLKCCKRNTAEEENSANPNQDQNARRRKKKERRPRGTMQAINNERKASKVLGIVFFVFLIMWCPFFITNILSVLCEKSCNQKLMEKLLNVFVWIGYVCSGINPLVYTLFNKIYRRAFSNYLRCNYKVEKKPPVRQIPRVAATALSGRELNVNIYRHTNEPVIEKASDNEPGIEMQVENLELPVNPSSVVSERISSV

anus-closing functions = experiment: Rat anus-closing functions (Anal LPP) measured by high speed infusion of saline into the rectum; format: in vivo; conditions: 5 minutes after administration, mean ± SEM
Description: (§1) Thirty six female SD rats were used. After overnight fasting, rats were intraperitoneally administered with urethane for anesthesia, and isoflurane inhalation was further added during surgery. The abdomen was incised to expose the rectum, and a small incision of the rectum was made. A polyethylene catheter (SP61, Natsume) was inserted into the rectum through the rectum incision, and the tip of the catheter was positioned around 5 mm from the anal orifice. The other end of the catheter was connected with a pressure transducer and an infusion pump via three-way stopcocks, and the change in pressure in the rectum was measured using the pressure transducer, an electric signal amplifier, and an analog-to-digital converter. For administrating drugs, a polyethylene catheter (SP45, Natsume) was inserted into the femoral vein after exposing the vein by small incision.
After recovery period from surgery, while saline was infused at a speed of 0.1 mL/sec into the rectum using an infusion pump, change in the measured pressure—was observed. The infusion was stopped when the leakage of the saline from the anal orifice was observed. In the procedure, sudden decrease in the pressure was observed during the infusion with the leakage of saline from the anal orifice. The peak value of the pressure recorded in the rectum during the course of the procedures was defined as “an Anal LPP” in this Example. […] The Anal LPP was again measured in the same way 5 minutes after drug administration. The difference in Anal LPP from the Pre value (increased amount of Anal LPP) was calculated. Regarding change in Anal LPP before and after drug administration, the differences between the mean values of the drug-treated and vehicle-treated groups were analyzed by the one-tailed Williams' test or Student's t-test.

[1] = tested on: anus-closing function increasing effect of Compound A′; experiment: Influence of SB 242084 on Compound A′-induced rat anus-closing function increasing effect (Anal LPP); format: in vivo; conditions: vehicle i.v. then Compound A′ 1 mg/kg i.v.; 5 minutes after Compound A′; n=9
Experimental: as §1, with “Eighteen” for “Thirty six”, “was” for “was further”
After recovery period from surgery, while saline was infused at a speed of 0.1 mL/sec into the rectum using an infusion pump, change in the measured pressure—was observed. […] The peak value of the pressure recorded in the rectum during the course of the procedures was defined as “an Anal LPP” in this Example. […] The Anal LPP was again measured in the same way 5 minutes after the administration with Compound A′. The difference in Anal LPP from the Pre value (increased amount of Anal LPP) was calculated. […]

CC(C)N(C)c1cnc2c(n1)OCCNC2.Cl [Compound A′, N-methyl-N-(1-methylethyl)-6,7,8,9-tetrahydropyrazino[2,3-f][1,4]oxazeine-3-amine]
EC50 (human 5-HT2C receptors): 2.6 nM
Anal LPP Increase (anus-closing functions; 0.3 mg/kg i.v.): 6.2 ± 3.1 cmH2O
Anal LPP Increase (anus-closing functions; 1 mg/kg i.v.): 30.2 ± 9.6 cmH2O
Anal LPP Increase [1]: 9.2±3.0 cmH2O
